Reference: patent US20100150839A1, “Compositions and Methods for Modulating Cognitive Function” (Massachusetts Institute of Technology, priority 2005, published 2010)

System: cultured primary hippocampal neurons
Test: Translation reporter assay: EGFP-αCaMKII 3′ UTR reporter mRNA transfected into neurons
Format: cell-based, rat

N#CC(=C(/N)Sc1ccccc1N)/C(C#N)=C(\N)Sc1ccccc1N [U0126]
Translation of EGFP-αCaMKII-A20 reporter mRNA: still more strongly inhibited
